# Earlier results, collected in PubChem BioAssay AID1259410 (Chemical Carcinogenesis Research Information System (CCRIS), 2018).
# System: rodent tumor promotion studies, tumor incidence
# Experiment: CCRIS tumor promotion studies
smiles,measurement,setting,value
O=[As](O)(O)O,outcome,"Carcinogen: 7,12-DIMETHYLBENZ[A]ANTHRACENE [57-97-6], Doses [Carcinogen]: 50 UG 2 X A WK FOR 2 WKS (STUDY DURATION: 25 WKS), Doses [Promoter]: 25 MG/L IN DRINKING WATER FOR 25 WKS, Route [Carcinogen]: DERMAL (SKIN PAINTING), Route [Promoter]: ORAL (DRINKING WATER), Species: MOUSE, Strain/Sex: SWISS NUDE HAIRLESS/MALE",skin; papillomas
Oc1ccccc1,outcome,"Carcinogen: 7,12-DIMETHYLBENZ(A)ANTHRACENE, Doses [Carcinogen]: 75 UG, SINGLE DOSE, Doses [Promoter]: 0, 2.5 MG 2/WK FOR 42 WK, Route [Carcinogen]: DERMAL, Route [Promoter]: DERMAL, Species: MOUSE, Strain/Sex: FEMALE",integumentary system (skin): carcinoma
CCCCCCCC/C=C\CCCCCCCC(=O)OC1CC2CCC1(C)C2(C)C (stereo not given),outcome,"Carcinogen: 7,12-DIMETHYLBENZ(A)ANTHRACENE, Doses [Carcinogen]: TOP, Route [Carcinogen]: DERMAL, Route [Promoter]: DERMAL, Species: MOUSE, Strain/Sex: FEMALE",integumentary system (skin)
CCC1(c2ccccc2)C(=O)N=C(O)NC1=O (stereo not given),outcome,"Carcinogen: 2-(ACETYLAMINO)FLUORINE, Doses [Carcinogen]: 0.02% IN DIET FOR 4 WK, Doses [Promoter]: 0.05% IN DIET FOR 32 WK, Route [Carcinogen]: ORAL, Route [Promoter]: ORAL, Species: RAT, Strain/Sex: F344/MALE",liver: hepatocellular carcinoma
same,outcome,"Carcinogen: DIETHYLNITROSAMINE, 55-18-5, 2-ACETYLAMINOFLUORENE, 6292-55-3, CARBON TETRACHLORIDE, 56-23-5, Carcinogen: DIETHYLNITROSAMINE, 55-18-5, 2-ACETYLAMINOFLUORENE, 6292-55-3, CARBON TETRACHLORIDE, 56-23-5, Doses [Carcinogen]: 200 MG/KG ONCE FOLLOWED 2 WK LATER BY 0.03% 2-ACETYLAMINOFLUORENE IN DIET FOR 2 WK PLUS 2 ML/KG CARBON TETRACHLORIDE IN, Doses [Promoter]: 0.05% IN DIET STARTING 1 WK POST 2-ACETYLAMINOFLUORENE AND CONTINUED FOR 6 MO (STUDY DURATION: 7 MO), Route [Carcinogen]: INTRAPERITONEAL, ORAL, INTRAGASTRIC, Route [Carcinogen]: INTRAPERITONEAL, ORAL, INTRAGASTRIC, Route [Promoter]: ORAL, Species: RAT, Strain/Sex: WISTAR/MALE",liver: hepatocellular carcinoma
same,outcome,"Carcinogen: DIETHYLNITROSAMINE, 55-18-5, Doses [Carcinogen]: 2.5, 10, 25, 50 UG/G IN SALINE ONCE ON DAY 15 OF AGE, Doses [Promoter]: 0, 500 PPM IN DRINKING WATER FROM 28 DAYS OF AGE TO 12, 24, 40 WK POST-WEANING (STUDY DURATION: 42 WK), Route [Carcinogen]: INTRAPERITONEAL, Route [Promoter]: ORAL, Species: MOUSE, Strain/Sex: BALB/MALE",liver: adenoma
same,outcome,"Carcinogen: DIETHYLNITROSAMINE, 55-18-5, N-METHYLNITROSOUREA, 684-93-5, DIHYDROXY-DI-N- PROPYLNITROSAMINE, 53604-64-6, Carcinogen: DIETHYLNITROSAMINE, 55-18-5, N-METHYLNITROSOUREA, 684-93-5, DIHYDROXY-DI-N- PROPYLNITROSAMINE, 53604-64-6, Doses [Carcinogen]: 100 MG/KG IN SALINE AT BEGINNING OF STUDY, 20 MG/KG IN CITRATE BUFFERED SOLUTION ON D 2, 5, 8 AND 11, 0.1% IN DRINKING, Doses [Carcinogen]: 100 MG/KG IN SALINE AT BEGINNING OF STUDY, 20 MG/KG IN CITRATE BUFFERED SOLUTION ON D 2, 5, 8 AND 11, 0.1% IN DRINKING, Doses [Promoter]: 0, 500 PPM IN DIET BEGINNING POST SEQUENTIAL CARCINOGEN TREATMENT AND CONTINUING FOR DURATION OF STUDY (STUDY DURATION:, Route [Carcinogen]: IP, IP, ORAL, Route [Carcinogen]: IP, IP, ORAL, Route [Promoter]: ORAL, Species: RAT, Strain/Sex: F344/MALE",thyroid: adenoma
same,outcome,"Carcinogen: DIETHYLNITROSAMINE, 55-18-5, N-METHYLNITROSOUREA, 684-93-5, DIHYDROXY-DI-N- PROPYLNITROSAMINE, 53609-64-6, Carcinogen: DIETHYLNITROSAMINE, 55-18-5, N-METHYLNITROSOUREA, 684-93-5, DIHYDROXY-DI-N- PROPYLNITROSAMINE, 53609-64-6, Doses [Carcinogen]: 100 MG/KG IN SALINE AT BEGINNING OF STUDY, 20 MG/KG IN CITRATE BUFFERED SOLUTION ON D 2, 5, 8 AND 11, 0.1% IN DRINKING, Doses [Carcinogen]: 100 MG/KG IN SALINE AT BEGINNING OF STUDY, 20 MG/KG IN CITRATE BUFFERED SOLUTION ON D 2, 5, 8 AND 11, 0.1% IN DRINKING, Doses [Promoter]: 0, 500 PPM IN DIET BEGINNING POST SEQUENTIAL CARCINOGEN TREATMENT AND CONTINUING FOR DURATION OF STUDY (STUDY DURATION:, Route [Carcinogen]: IP, IP, ORAL, Route [Carcinogen]: IP, IP, ORAL, Route [Promoter]: ORAL, Species: RAT, Strain/Sex: F344/MALE",thyroid: adenoma
same,outcome,"Carcinogen: ETHYLNITROSOUREA, 759-73-9, Doses [Carcinogen]: 5 MG/KG ONCE AT 15 D OF AGE, Doses [Promoter]: 0, 500 PPM IN DRINKING WATER BEGINNING AT 5 WK OF AGE AND CONTINUING TO 51 WK OF AGE (STUDY DURATION: 52 WK), Route [Carcinogen]: INTRAPERITONEAL, Route [Promoter]: ORAL, Species: MOUSE, Strain/Sex: CD-1/FEMALE",liver: adenoma
same,outcome,"Carcinogen: ETHYLNITROSOUREA, 759-73-9, Doses [Carcinogen]: 5 MG/KG ONCE AT 15 D OF AGE, Doses [Promoter]: 0, 500 PPM IN DRINKING WATER BEGINNING AT 5 WK OF AGE AND CONTINUING TO 51 WK OF AGE (STUDY DURATION: 52 WK), Route [Carcinogen]: INTRAPERITONEAL, Route [Promoter]: ORAL, Species: MOUSE, Strain/Sex: CD-1/MALE",liver: carcinoma
same,outcome,"Carcinogen: ETHYLNITROSOUREA, 759-73-9, Doses [Carcinogen]: 20 MG/KG ONCE AT 15 D OF AGE, Doses [Promoter]: 0, 500 PPM IN DRINKING WATER BEGINNING AT 5 WK OF AGE AND CONTINUING TO 51 WK OF AGE (STUDY DURATION: 52 WK), Route [Carcinogen]: INTRAPERITONEAL, Route [Promoter]: ORAL, Species: MOUSE, Strain/Sex: CD-1/FEMALE","liver: adenoma, carcinoma"
same,outcome,"Carcinogen: ETHYLNITROSOUREA, 759-73-9, Doses [Carcinogen]: 20 MG/KG ONCE AT 15 D OF AGE, Doses [Promoter]: 0, 500 PPM IN DRINKING WATER BEGINNING AT 5 WK OF AGE AND CONTINUING TO 51 WK OF AGE (STUDY DURATION: 52 WK), Route [Carcinogen]: INTRAPERITONEAL, Route [Promoter]: ORAL, Species: MOUSE, Strain/Sex: CD-1/MALE",liver: carcinoma
same,outcome,"Carcinogen: N-BIS(2-HYDROXYPROPYL)NITROSAMINE, 53609-64-6, Doses [Carcinogen]: 280 MG/100 G/BW ONCE, Doses [Promoter]: 0, 0.05% IN DRINKING WATER FOR 25 WK (STUDY DURATION: 26 WK), Route [Carcinogen]: SUBCUTANEOUS, Route [Promoter]: ORAL, Species: RAT, Strain/Sex: F344/MALE",thyroid: neoplasm
same,outcome,"Carcinogen: N-METHYL-N-NITROSOUREA, 684-93-5, Doses [Carcinogen]: 30 MG/KG BW ONCE, Doses [Promoter]: 0, 0.5% IN DRINKING WATER FOR DURATION OF STUDY BEGINNING POST CARCINOGEN DOSE(STUDY DURATION: 14 MO), Route [Carcinogen]: INTRAVENOUS, Route [Promoter]: ORAL, Species: RAT, Strain/Sex: LOBUND-WISTAR/MALE","lung: carcinoma, prostate/seminal vesicles: tumor"
CC(C)C[C@H](NC(=O)[C@H](Cc1ccccc1)NC(=O)CNC(=O)CNC(=O)[C@@H](N)Cc1ccc(O)cc1)C(=O)O,outcome,"Carcinogen: N-METHYL-N'-NITRO-N-NITROSOGUANIDINE, 70-25-7, Doses [Carcinogen]: 25 UG/ML IN DRINKING WATER FOR 25 WK, Doses [Promoter]: 0, 20 UG/KG 1/2 D BEGINNING POST CARCINOGEN TREATMENT AND CONTINUING FOR THE DURATION OF STUDY (STUDY DURATION: 52 WK), Route [Carcinogen]: ORAL, Route [Promoter]: SUBCUTANEOUS, Species: RAT, Strain/Sex: WISTAR/MALE",stomach: adenocarcinoma
